Experimental data from US5583000A, “Protease-binding compounds and methods of use” (priority 1993, dated 1996).
Values after ≈ are worked out from the molar mass of the structure shown. Values joined by “and” are separate entries in the source; they are usually repeats but may differ in a detail not shown here. Equal values may be shown once. Read-outs that look alike come from different tables or passages of the source. Square brackets hold non-standard residues; d marks the D form. Ends that are not written are not given here. Peptide text beside a SMILES is read from it. * marks the point of attachment. Sta = CC(C)C[C@H](N)[C@@H](O)CC(=O)O; Isovaleryl = CC(C)CC(=O)*

How the values were obtained:
in vitro [1] = conditions: african green monkey, cos-7 cells
Procedure: (§1) MTT cell viability assay. This is a quantitative colorimetric assay for mammalian cell survival and proliferation. Cells were seeded in 96 well plates and grown to near 50% confluency. A serial dilution (1 to 500 μM) of each compound was then prepared in culture media and added (250 μL/well) in duplicate. All culture media was adjusted to a final concentration of 1.0% DMSO (volume basis). The cells were allowed to grow for either 4 hours or 24 hours. The culture media were then removed, and the cells were washed with phosphate buffered saline (PBS) before 50 μL of MTT solution (1 mg/mL in PBS) was added. After incubating for 4 hours at 37° C., the reaction was quenched by adding 160 μL of acidified isopropanol and mixing to dissolve purple crystals. The absorbance was determined within 30 minutes at 570 nm on an ELISA plate reader.
(§2) The cytotoxic effect of the inhibitors was determined using the MTT stain viability assay.

HIV-2 PR = molecular target: T1, HIV-2 PR (Human immunodeficiency virus type 2 subtype A, UniProt P04584); assay: biochemical; format: biochemical; conditions: for KI (inactivation): read-out: kinact (μM) HIV-2
T1 construct: HIV-2 PR (at a final concentration of 30 μg/mL); made in house

in vitro [2] = assay: in vitro
Procedure: Cytotoxicity. The MTT assay was performed as follows:
The cells were seeded in 96-well plates and grown overnight to near 50% confluency. A serial dilution (1 to 500 μM) of each compound in culture media was prepared and 250 μL/well was added in duplicate. The cells were allowed to grow for various periods of time (6, 24, 48 hours) and any precipitation of compounds in the wells was noted. The assay was performed by removing 200 μL of the culture media and adding 25 μL of MTT solution (2 mg/mL in phosphate buffered saline (PBS)). This was incubated for 4 hours at 37° C. and live cells began to turn purple while the solution remained yellow. To quench the reaction and solubilize the reaction product, 160 μL of acidified isopropanol (4 mL 1N HCl for 96 mL alcohol) were added and the resulting mixture was mixed vigorously to dissolve purple crystals. Absorbance was determined at 550-570 nm on an ELISA plate reader within 0.5-2 hours. […] To obtain the LD50 values for each compound, the concentration at which the absorbance is haft of that for the untreated cells was determined.

p24 = p24 core antigen ELISA of virus from treated COS-7 cells
Procedure: Drug treatment. The compounds were added 48 hours post-transfection, at the peak of virus production, and the incubation was restricted to a 4-hour period. […] Culture media were adjusted to the desired concentration of these compounds just prior to the addition of the media to cells. To avoid precipitation, the compounds were aliquoted first to a tube in sufficient DMSO to yield a 1.0% final concentration, and subsequently the culture medium was added quickly and vortexed. The culture medium was collected after 4 hours of incubation of the cells with each of the compounds. This culture supernatant is the source of virus for measurement of infectivity as well as levels of p24 and other capsid proteins.
p24 Core antigen ELISA assay. An ELISA kit purchased from NEN/Dupont was used to determine the amount of p24 present in culture media or virus preparations. This capture assay uses a monoclonal antibody that preferentially binds p24 while it reacts with larger capsid protein precursors to a very limited extent. The assay was carded out using the manufacturer's indications. Samples were pre-treated with 1% Triton to inactivate the virus.
Virus isolation by ultracentrifugation. The culture medium was filtered through a 0.45 μm syringe filter and was then centrifuged to remove any precipitate. The medium was then spun through a cushion of 20% sucrose in PBS in an SW41 Beckman rotor for 1.5 hours at 35K and 4° C. The pelleted material was collected.
Following incubation of virus-producing cells with various concentrations of the test compounds, the virus particles were isolated by ultracentrifugation. These particles were disrupted using Triton X-100 and the amount of p24 capsid protein was quantitated by ELISA.

HIV-1 protease [3] = molecular target: T2, HIV-1 protease (Human immunodeficiency virus type 1 group M subtype B, UniProt P03369); assay: biochemical
HIV-1 PR Q7K = HIV-1 PR Q7K (Human immunodeficiency virus type 1 group M subtype B, UniProt P03369, Q497K); format: biochemical; conditions: read-out: kinact (μM) HIV-1; inhibitor concentration resulting in half-maximal inactivation; pH 8.0, 25° C.
HIV-2 protease = molecular target: T3, HIV-2 protease (Human immunodeficiency virus type 2 subtype A, UniProt P04584); assay: biochemical
T3 construct: the coding region of the 99-amino acid protease; made in house; host or cells: Saccharomyces cerevisiae strain AB110, plasmid pHIV2PR115
Procedure: The decapeptide was synthesized by conventional solid-state methods. Reactions were carried out and fractionated by HPLC. Conversion of the decapeptide to the two pentapeptides was quantitated by integration of the peak areas and comparison to product standard curves.
Enzymatic Inhibition. […] Each data point was done in triplicate and initial enzyme rates were fit to the Michaelis-Menten equation using a nonlinear regression program ("Enzfitter" from Biosoft).

HIV protease = HIV protease (Human immunodeficiency virus type 1 group M subtype B, UniProt P04585); conditions: cited from earlier work
HIV-1 protease [4] = molecular target: T2, HIV-1 protease; format: cell-based; parameters: fused to amino acids 5 (Asp) to 179 (Trp) of the pol region; human superoxide dismutase (hSOD, 153 residues) (N); Phe-Arg-Glu are pol residues) (N); additional Pro residue of pol (C); expressed in transfected cells; host or cells: E. coli strain D1210 harboring plasmid pSOD/PR179
[5] = MTT cell viability assay (Tables 5 and 7); conditions: african green monkey, cos-7 cells
Procedure: as §1, §2

HIV = assay: HeLa/T4 infectivity assay with replication-defective virions from transfected COS-7 cells; format: cell-based; conditions: for colony reduction (summary in words): Table 5 concentrations
HIV-1 PR C95M = HIV-1 PR C95M (Human immunodeficiency virus type 1 group M subtype B, UniProt P03369, C585M); assay: Protection experiment, incorporation of radio-labelled UCSF84; format: binding
HIV-1 PR [6] = molecular target: T4, HIV-1 PR (Human immunodeficiency virus type 1 group M subtype B, UniProt P03369); assay: biochemical; format: binding; conditions: preincubation 10 μM one hour, then radio-labelled UCSF84 200 μM
HIV-1 PR [7] = molecular target: T4, HIV-1 PR; conditions: pH 8
[8] = inhibitor concentration resulting in half-maximal inactivation, pH 8.0, 25° C.
[9] = pH 8, maximum inactivation rate, read-out: Vinact (min^-1 × 10^3) HIV-2 (converted)
[10] = Human immunodeficiency virus 1, COS-7, 4 h, read-out: Reduction of p24 IC50 (μM)
[11] = HIV-1 Protease IC50 (μM) 1M NaCl
[12] = HIV-1 Protease IC50 (μM) 1M NaCl, 1M NaCl
[13] = Human immunodeficiency virus 1, COS-7, 4 h, read-out: % p24 Relative to Untreated

T1 sequence (P04584 514-612 limits assumed): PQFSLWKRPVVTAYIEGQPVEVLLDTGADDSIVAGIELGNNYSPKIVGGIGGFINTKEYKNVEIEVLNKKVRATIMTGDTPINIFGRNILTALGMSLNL
T3 sequence (P04584 514-612 limits assumed): as above

Compound	CC50 at 4 h (in vitro [1])	CC50 at 24 h (in vitro [1])	solubility (physchem)	CC50 at 6 h (in vitro [2])	IC50 (HIV-1 protease [3]; [11])	KI (inactivation) (HIV-1 PR Q7K)	IC50 (HIV-2 protease; 1M NaCl)	solubility (Solubility)	IC50 (HIV-1 protease [3]; [12])	also measured
O=C(/C=C/C[N+]1([O-])CCC(O)(c2ccc(Cl)cc2)CC1)c1ccc(F)cc1 (stereo not shown) [UCSF115]	250 µM	200 µM	250 µM (≈ 97.5 µg/mL)	250 µM	30 µM	144 ± 14.8 µM	–	–	–	KI (inactivation) (HIV-2 PR; [8]): 116 ± 4.7 µM; kinact (HIV-2 PR; [9]): 0.0052 min⁻¹; IC50 (p24; [10]): 75 µM
OC(CCCC1(O)CCN(Cc2ccccc2)CC1)c1ccccc1 (stereo not shown) [UCSF77]	–	–	–	500 µM	–	–	500 µM	> 500 µM	2500 µM	–
CC(C)CC(=O)N[C@H](C(=O)N[C@H](C(=O)N[C@@H](CC(C)C)[C@@H](O)CC(=O)N[C@@H](C)C(=O)N[C@@H](CC(C)C)[C@@H](O)CC(=O)O)C(C)C)C(C)C [pepstatin A] (Isovaleryl-VV[Sta]A[Sta]-OH)	–	–	–	–	–	–	–	–	–	inhibition of protein processing by HIV protease (HIV protease): partially inhibit protein processing
C/C=C/C/C=C/CCC(=O)[C@H]1O[C@H]1C(N)=O [cerulenin, reference compound]	900 µM	–	–	–	–	–	–	–	–	inhibition of protein processing (35-kDa and 38-kDa intermediates) (HIV-1 protease [4]; 500 μM, 15 minutes (FIG. 11b)): no detectable inhibition; inhibition of protein processing (intermediate bands) (HIV-1 protease [4]; 500 μM, 120 minutes (FIG. 11c)): protein processing inhibition; activity at 100 µM (p24; [13]): 36%; cytotoxicity at 4 h, 100 µM [5]: 0%; inhibition at 100 µM (HIV; Human immunodeficiency virus 1, HeLaT4, 100 μM, 4-hour treatment, read-out: Hela/T4 Infection % Colony Reduction): 77%
OC(CCCN1CCC(O)(c2ccc(Cl)cc2)CC1)c1ccc(F)cc1 (stereo not shown) [UCSF2]	–	–	> 250 µM	–	200 µM	–	–	–	–	inhibition of protein processing (intermediate bands) (HIV-1 protease [4]): An increase in the band representing an intermediate in the vicinity of the 29-kDa marker; IC50 (HIV-2 protease): 700 µM; HIV-1 Protease Therapeutic Index (LD50 /IC50) (HIV-1 protease [3]): 0.5
O=C(/C=C/CN1CCC(O)(c2ccc(Cl)cc2)CC1)c1ccc(F)cc1 [UCSF191]	–	–	> 150 µM	22 µM	80 µM	57.2 ± 7.1 µM	–	–	–	kinact (HIV-2 PR; pH 8, read-out: Vinact (min^-1 × 10^3) HIV-2): 0.0121 min⁻¹; KI (inactivation) (HIV-2 PR; hiv-2 pr, pH 8): 156 ± 2.3 µM
OC1(c2ccc(Cl)cc2)CCN(CCCC2(c3ccc(F)cc3)SCCS2)CC1 [UCSF8, (1,2-ethanethioacetal)-4-(4-(p-chlorophenyl)-4-hydroxypiperidinyl]-4'-fluorobutyrophenone]	45 µM	–	> 250 µM	60 µM	15 µM	–	100 µM	–	–	cytotoxicity at 4 h, 20 µM (in vitro [1]): 55%; activity at 20 µM (p24; [13]): 62%; HIV-1 Protease Therapeutic Index (LD50 /IC50) (HIV-1 protease [3]): 4; inhibition of HIV-1 protease compared with other compounds (HIV-1 protease [3]): 50% inhibition is achieved at a much lower inhibitor concentration relative to haloperidol; IC50 (HIV-1 protease [3]; IC50): 73 µM and 32 µM and 15 µM; inhibition at 20 µM (HIV; Human immunodeficiency virus 1, HeLaT4, 20 μM, 4-hour treatment, read-out: Hela/T4 Infection % Colony Reduction): 85%; colony reduction (summary in words) (HIV): significant colony reduction
O=C(c1ccc(N2CCC(O)(c3ccc(Cl)cc3)CC2)cc1)C1(CC#CCO)CC1 [UCSF83]	–	–	–	> 250 µM	–	–	78 µM	> 250 µM	15 µM	–
Val-Ser-Asn-Ler-.psi.[CH(OH)CH2 ]-Val-Ile-Val (VSNLVIV; numbers in words are those of the source; also: Leu-Val peptide bond replaced by hydroxyethylene isostere ψ[CH(OH)CH2]) [Compound U-85548]	–	–	–	–	–	–	–	–	–	incorporation after preincubation of the enzyme (HIV-1 PR C95M; preincubation 10 μM, then radio-labelled UCSF84): sharply reduced; blocking of radioactivity incorporation to HIV-1 PR (HIV-1 PR [6]): approximately 65%
OC1(C2(c3ccc(Cl)cc3)SCCCS2)CCN(CCCC2(c3ccc(F)cc3)SCCS2)CC1 [UCSF75]	–	–	–	200 µM	–	–	13 µM	< 50 µM	50 µM	–
OC1(C#CC2(c3ccccc3)CO2)CCN(Cc2ccccc2)CC1 (stereo not shown) [UCSF70, N-benzyl-4-hydroxy-4-(3,4-epoxy-3-phenyl-1-butyny)piperidine]	70 µM	35 µM	–	120 µM	–	407 ± 61.6 µM	–	> 500 µM	750 µM	IC50 (p24; [10]): 25 µM
O=C(C#CCN1CCC(O)(c2ccc(Cl)cc2)CC1)c1ccc(-c2ccccc2)cc1 [UCSF231, 4-(4'-(4"-chlorophenyl)-4'-hydroxypiperidinyl)-1-p-biphenylbut-2-yn-1-one]	< 5 µM	< 5 µM	–	10 µM	100 µM	385 ± 58 µM	–	–	–	HIV-1 Protease Therapeutic Index (LD50 /IC50) (HIV-1 protease [3]): < 0.1
C=C(CCC[N+]1([O-])CCC(O)(c2ccc(Cl)cc2)CC1)c1ccc(F)cc1 (stereo not shown) [UCSF42]	300 µM	–	500 µM (≈ 195 µg/mL)	160 µM	30 µM	–	67 µM	–	–	cytotoxicity at 4 h, 75 µM (in vitro [1]): 0%; activity at 75 µM (p24; [13]): 45%; HIV-1 Protease Therapeutic Index (LD50 /IC50) (HIV-1 protease [3]): 5.3; inhibition of HIV-1 protease compared with other compounds (HIV-1 protease [3]): better inhibitor than haloperidol but not as potent an inhibitor as UCSF8; inhibition at 75 µM (HIV; Human immunodeficiency virus 1, HeLaT4, 75 μM, 4-hour treatment, read-out: Hela/T4 Infection % Colony Reduction): 92%; colony reduction (summary in words) (HIV): significant colony reduction
OC1(CCCCc2ccccc2)CCC(O)(c2ccccc2)CC1 (stereo not shown) [UCSF29, 4-(4'-phenylbutyl)-1-phenyl-1,4-cyclohexanediol]	180 µM	–	–	160 µM	–	–	–	> 250 µM	128 µM	cytotoxicity at 4 h, 250 µM (in vitro [1]): 80%; activity at 250 µM (p24; [13]): 35%; IC50 (HIV-1 protease [3]; 0.2M NaCl, read-out: IC50): 1400 µM; IC50 (HIV-1 protease [3]; 0.5M NaCl, read-out: IC50): 625 µM; IC50 (HIV-1 protease [3]; 1.0M NaCl, read-out: IC50): 128 µM; inhibition of HIV-1 protease compared with other compounds (HIV-1 protease [3]; FIGS. 5-8, three salt concentrations): not unlike that for haloperidol; HIV-1 Protease Therapeutic Index (LD50 /IC50) (HIV-1 protease [3]; LD50/IC50): 1.2; inhibition at 250 µM (HIV; Human immunodeficiency virus 1, HeLaT4, 250 μM, 4-hour treatment, read-out: Hela/T4 Infection % Colony Reduction): 100%; colony reduction (summary in words) (HIV): significant colony reduction
O=C(C=C(CN1CCC(O)(c2ccc(Cl)cc2)CC1)SCCO)c1ccccc1 [UCSF178, 4-(4'-(4"-chlorophenyl)-4'-hydroxypiperidinyl)-3-(2'-hydroxyethylthio)-1-phenyl-2-buten-1-one]	> 250 µM	75 µM	150 µM (≈ 64.8 µg/mL)	> 250 µM	140 µM	232 ± 10.8 µM	–	–	–	KI (inactivation) (HIV-2 PR; [8]): 120 ± 9.9 µM; kinact (HIV-2 PR; [9]): 0.0046 min⁻¹
O=C(C#CCN1CCC(O)(c2ccc(Cl)cc2)CC1)c1ccccc1 [UCSF86, 4-(4'-(4"-chlorophenyl)-4'-hydroxypiperidinyl)-1-phenylbut-2-yn-1-one]	15 µM	< 10 µM	> 60 µM	15 to 20 µM	20 µM	62.4 ± 3.1 µM	–	–	–	KI (inactivation) (HIV-2 PR; [8]): 131 ± 4.4 µM; kinact (HIV-2 PR; [9]): 0.0076 min⁻¹
OC1(c2ccc(Cl)cc2)CCN(CC#CC2(c3ccccc3)CO2)CC1 (stereo not shown) [UCSF84]	120 µM	50 µM	> 250 µM	100 to 165 µM	150 µM	521 ± 56.6 µM	–	–	–	incorporation of radioactivity relative to HIV-1 PR (HIV-1 PR C95M; 200 μM, one hour, 25° C.): approximately 50%; KI (inactivation) (HIV-2 PR; [8]): 283 ± 9.3 µM; kinact (HIV-2 PR; [9]): 0.0146 min⁻¹; reversibility of inhibition after dilution and buffer exchange (HIV-1 PR [7]): irreversible modification of the enzyme; IC50 (p24; read-out: Reduction of p24 IC50, 4 hours incubation, ELISA): 50 µM
C=CCCCC1(C(=O)c2ccc(N3CCC(O)(c4ccc(Cl)cc4)CC3)cc2)CC1 [UCSF82]	–	–	–	> 250 µM	–	–	800 µM	< 100 µM	100 µM	–
